“Also recorded” adds a separate entry of the source.
Key:
[1] = Dynamic vapor sorption (DVS) isotherm; assay type: physicochemical; details: for DVS hysteresis: 5 to 95 to 5% RH; for XRPD of post DVS sample (solid form): material recovered after DVS cycle ending at 5% RH
Excerpt: As used herein, DVS (Dynamic Vapor Sorption) is a gravimetric technique to measure the rate and amount of absorption of a solvent by a sample under controlled conditions. […]

[2] = Water activity (aw) slurries in mixed aqueous/organic solvent systems, XRPD; assay type: physicochemical; details: for Result (solid form after slurry): ambient; for Water activity at which the form is the most stable form: from water activity slurries and RH stressing, Form C: above 0.12 aw up to the value
Excerpt: (§1) To investigate the stability of the four pure crystalline forms of Alpha-1062 Gluconate, water activity (aw) slurries using a variety of mixed aqueous/organic solvent systems (Table 6) along with relative humidity stressing (Table 7) were used to define the regions of stability for the given hydrates of Alpha-1062 Gluconate.

[3] = Relative humidity stressing of solid samples, XRPD; assay type: physicochemical
Excerpt: as §1

[4] = Polymorph screen: ambient slurries of Form A in solvents, XRPD; assay type: physicochemical; details: 14 d
Experimental: A polymorph screening study was initiated to investigate the presence and identity of various solid materials that may be possible for Alpha-1062 Gluconate. This study used lot CA19-1144 as the starting material and utilized various solvent systems and conditions to isolate and study the materials produced during the studies (Table 5). The various materials were analyzed by XRPD and the various solid forms identified as shown (FIG. 6).

[5] = Heat / vacuum stressing analysed by XRPD; assay type: physicochemical
Experimental: Form B: Alpha-1062 Gluconate, Sample 8235-82-08 (Table 10). Form B is a tetrahydrate crystalline lattice. It appears that at least one of the four water sites in the crystal lattice is somewhat labile. […] The formula unit volume of 772 Å^3 calculated from the indexing results is larger than Form A by 84 Å^3. […] A broad endotherm with an onset of 66° C. (concurrent with weight loss in the TGA) is observed in the DSC consistent with desolvation. […] Upon desorption, 1.8% weight loss from 95-15% RH followed by 6.8% weight loss from 15-5% RH was observed. The DVS data was corrected for water content measured by KF at 57% RH (FIG. 18). A stable plateau of between 3.6 and 3.9 mol/mol of water for Form B is evident between 15 and 85% RH.
Form C: Alpha-1062 Gluconate, Sample 8235-87-02 (Table 11). Form C was determined to be a monohydrate crystal lattice occupied at only about 0.4 to 0.5 mol/mol of water. […] The XRPD pattern was successfully indexed by a single primitive monoclinic unit cell. The formula unit volume of 706 Å^3 calculated from the indexing results is larger than Form A by 18 Å^3. […] An endotherm with an onset of 119° C. is observed in the DSC. • Form C (sample 8235-92-04) was held at 11% RH for seven days and analyzed by XRPD and DSC for comparison (sample 8296-08-01). […] The DVS data was corrected for water content measured by KF at 11% RH (FIG. 25). […]

[6] = Storage and XRPD reanalysis; assay type: physicochemical; details: reanalyzed
Excerpt: Material G: Alpha-1062 Gluconate, Samples 8235-87-01 and 8235-100-02 (Table 15). Material G has been observed from evaporative experiments of both 1,4-dioxane and THF. […] Based on the spontaneous conversion, Material G is metastable with Form B at that condition. Material G was not observed during any of the water activity slurries or relative humidity work.
Amorphous: Alpha-1062 Gluconate, sample 8235-76-13 (Table 16) has been observed from slow evaporation from methanol (Table 5). […] No significant impurity increases were observed by ^1H NMR. • Thermal Analysis (FIG. 35). A cyclic DSC was conducted to determine the glass transition (Tg) temperature of the amorphous solid. The glass transition temperature was determined to be near 41° C. Decomposition was observed upon continued heating with no nucleation.

[7] = steady-state, human brain vs blood; cited from earlier work
[8] = IPA/H2O 97:03 v/v, 0.31 aw, 13 d
[9] = MEK/H2O 98:02 v/v, 0.42 aw, 13 d
[10] = water activity slurries and RH stressing

COc1ccc2c3c1O[C@H]1C[C@@H](OC(=O)c4ccccc4)C=C[C@@]31CCN(C)C2.O=C(O)C(O)C(O)C(O)C(O)CO [Form A, Alpha-1062 gluconate]
Hygroscopicity (DVS assessment) [1]: significant hygroscopicity above 75% RH
DVS hysteresis [1]: Hysteresis was observed
DVS hysteresis ([1]; listed as CA19-1144): hysteresis observed
DVS wt. gain ([1]; from 5 to 75% RH (sorption)): 0.57 % wt.
DVS wt. gain ([1]; from 5 to 75% RH (sorption), listed as CA19-1144): 0.57% wt. gain from 5 to 75% RH
DVS wt. gain ([1]; from 75 to 85% RH (sorption)): 2.97 % wt.
DVS wt. gain ([1]; from 75 to 85% RH (sorption), listed as CA19-1144): 2.96% wt. gain from 75 to 85% RH
DVS wt. loss ([1]; from 85 to 5% RH (desorption)): 2.98% wt. loss from 85 to 5% RH
DVS wt. gain ([1]; from 85 to 95% RH (sorption)): 8.7 % wt.
DVS wt. gain ([1]; from 85 to 95% RH (sorption), listed as CA19-1144): 8.67% wt. gain from 85 to 95% RH
DVS wt. loss ([1]; from 95 to 85% RH (desorption)): 1.73% wt. loss from 95 to 85% RH
XRPD of post DVS sample (solid form) [1]: Form A+minor peaks of Form B
XRPD of post DVS sample (solid form) ([1]; listed as CA19-1144): Form A + B (trace)
Water gain at stable desorption plateau ([1]; weight within stable plateau on desorption): more than 3 mol/mol
Result (solid form after slurry) ([2]; MEK/H2O 98:02 v/v, 0.42 aw, 1 d): C + B
Result (solid form after slurry) ([2]; MEK/H2O 98:02 v/v, 0.42 aw, 2 d): C + B
Result (solid form after slurry) ([2]; MEK/H2O 99:01 v/v, 0.27 aw, 7 d): C + A
Water activity at which the form is the most stable form [2]: less than 0.12 aw
Result (solid form by XRPD) ([3]; 43% RH, 5 d): kinetically stable
Result (solid form by XRPD) ([3]; 75% RH, 1 d): D + minor A
Result (solid form by XRPD) ([3]; 75% RH, 2 d): D + minor B
Result (solid form after slurry) ([4]; EtOH): C + A
Result (solid form after slurry) ([4]; acetone): C + D

COc1ccc2c3c1O[C@H]1C[C@@H](OC(=O)c4ccccc4)C=C[C@@]31CCN(C)C2.O=C(O)C(O)C(O)C(O)C(O)CO [Form B, Alpha-1062 gluconate]
Hygroscopicity (DVS assessment) [1]: limited hygroscopicity
DVS wt. loss ([1]; from 15-5% RH (desorption)): 6.8% wet loss from 15-5% RH % wt.
XRPD of post DVS sample (solid form) [1]: anhydrous Form A
Result (solid form after slurry) [2, 8]: C + B
Result (solid form after slurry) [2, 9]: C + B
Water activity at which the form is the most stable form [2]: Above 0.5 aw
Water activity of solvent systems in which the form was observed ([2]; in equilibrium Form B/Form C between 0.31 and 0.52 aw): above 0.52 aw
Result (solid form by XRPD) ([3]; 0% RH, P2O5, 1 d): dehydrate to Form A
Result (solid form by XRPD) ([3]; 57% RH, 4 d): remained Form B
Solid form by XRPD after heating ([5]; 40-75° C., 10 min (in DSC)): partial dehydration and conversion to a mixture of Forms D and C; also recorded: Form D + C + peak

COc1ccc2c3c1O[C@H]1C[C@@H](OC(=O)c4ccccc4)C=C[C@@]31CCN(C)C2.O=C(O)C(O)C(O)C(O)C(O)CO [Form C + B, Alpha-1062 gluconate]
Result (solid form by XRPD) ([3]; 0% RH, P2O5, 1 d): C+ A

COc1ccc2c3c1O[C@H]1C[C@@H](OC(=O)c4ccccc4)C=C[C@@]31CCN(C)C2.O=C(O)C(O)C(O)C(O)C(O)CO [Form C, Alpha-1062 gluconate]
Hygroscopicity (DVS assessment) [1]: significant hygroscopicity above 75% RH
DVS hysteresis [1]: hysteresis observed
Water retained after DVS ([1]; DVS corrected for KF water content at 11% RH): ~1.4 mol/mol
DVS wt. gain ([1]; from 5-65% RH (sorption)): 0% wt. gain from 5-65% RH
DVS wt. gain ([1]; from 5 to 75% RH (sorption)): no significant weight gain
DVS wt. retained ([1]; from 75-5% RH (desorption)): ~3% wt. retained from 75-5% RH
XRPD of post DVS sample (solid form) [1]: mixture of Forms C and B; also recorded: Form C + B
Result (solid form after slurry) [2, 8]: C + B
Result (solid form after slurry) [2, 9]: C + B
Water activity at which the form is the most stable form [2]: up to 0.5 aw
Result (solid form by XRPD) ([3]; 0% RH, P2O5, 1 d): C + minor A
Result (solid form by XRPD) ([3]; 11% RH, 4 d): remained Form C
Result (solid form by XRPD) ([3]; 11% RH, 7 d): remained Form C
Solid form by XRPD after vacuum storage ([5]; vacuum, 45° C., 3 hrs): remained Form C with the presence of a minor amount of Form A

COc1ccc2c3c1O[C@H]1C[C@@H](OC(=O)c4ccccc4)C=C[C@@]31CCN(C)C2.O=C(O)C(O)C(O)C(O)C(O)CO [Form D + A, Alpha-1062 gluconate]
Result (solid form by XRPD) ([3]; 75% RH, 4 d): B + D

COc1ccc2c3c1O[C@H]1C[C@@H](OC(=O)c4ccccc4)C=C[C@@]31CCN(C)C2.O=C(O)C(O)C(O)C(O)C(O)CO [Form D + B, Alpha-1062 gluconate]
Result (solid form by XRPD) ([3]; 75% RH, 1 d): D + B

COc1ccc2c3c1O[C@H]1C[C@@H](OC(=O)c4ccccc4)C=C[C@@]31CCN(C)C2.O=C(O)C(O)C(O)C(O)C(O)CO [Form D, Alpha-1062 gluconate]
Result (solid form after slurry) [2, 8]: C + B
Result (solid form after slurry) [2, 9]: C + B
Water activity at which the form is the most stable form [2]: does not appear stable at any of the conditions evaluated
Result (solid form by XRPD) ([3]; 75% RH, 1 d): Form D + minor B
Relative humidity at which the form converts to Form C [3, 10]: < 52 % RH
Relative humidity of extended exposure at which the form converts to Form B [3, 10]: ≥ 52 % RH

COc1ccc2c3c1O[C@H]1C[C@@H](OC(=O)c4ccccc4)C=C[C@@]31CCN(C)C2.O=C(O)C(O)C(O)C(O)C(O)CO [Forms B + D, Alpha-1062 gluconate]
Result (solid form after slurry) ([2]; MEK/H2O 97:03 v/v, 0.52 aw, 7 d): B + C

COc1ccc2c3c1O[C@H]1C[C@@H](OC(=O)c4ccccc4)C=C[C@@]31CCN(C)C2.O=C(O)C(O)C(O)C(O)C(O)CO [Material G, Alpha-1062 gluconate]
Solid form by XRPD on reanalysis ([6]; 5 weeks): partially converted to Form B; also recorded: Material G + Form B

COc1ccc2c3c1O[C@H]1C[C@@H](OC(=O)c4ccccc4)C=C[C@@]31CCN(C)C2.O=C(O)C(O)C(O)C(O)C(O)CO [amorphous Alpha-1062 Gluconate, Alpha-1062 gluconate]
Solid form by XRPD on reanalysis ([6]; 5 weeks): amorphous
Solid form by XRPD on reanalysis ([6]; 5 weeks, listed as Amorphous): remain amorphous
Solid form by XRPD on reanalysis ([6]; 13 days): Form B + C
Solid form by XRPD on reanalysis ([6]; 13 days, listed as Amorphous): spontaneously crystallized to a mixture of Forms B and C

COc1ccc2c3c1O[C@H]1C[C@@H](O)C=C[C@@]31CCN(C)C2 [galantamine]
brain-to-blood concentration ratio (BBCR) [7]: < 2
